Test results reported in patent US12686657B2, “Anti-inflammatory carboxamide derivatives” (BIOMEDCODE HELLAS SA, priority 2021, dated 2026).
Read-outs that look alike come from different tables or passages of the source.

What was measured:
Format in all cases: cell-based, mice
hTNF-activated wt SFs = assay: CCL5 and CCL20 ELISA on hTNF-activated wild type synovial fibroblasts; settings: for activity at 10 µM / activity at 50 µM / IC50 / activity at 25 µM: Mus musculus, Fibroblast; for activity at 10 µM / activity at 50 µM / activity at 25 µM / CCL5 WT, percentage of level in untreated cells / CCL20 WT, percentage of level in untreated cells: 48 h; for activity at 50 µM: compound 50 μM; for IC50: 10 ng/ml hTNF stimulation
Description: (§1) Primary SFs were derived from a) human TNF transgenic (hTNFTg) mice (Keffer et al., 1991) as well as from b) CBA/C57BL6 wild type mice.
By testing the compounds in a) and b) we accessed their effect on the activated SFs phenotype caused by both the endogenous hTNF upregulation and the exogenous hTNF administration. In this way it was confirm the ability of the compounds of the invention to act in the TNF pathway directly downstream of TNF.
(§2) SFs were isolated as previously described by Armaka et al., 2009, from the ankle joints of hTNFtg or CBA/C57BL6 wild type (wt) littermates. Briefly, ankle joints were digested with Collagenase IV (Sigma Aldrich, C5138) for 45 minutes at a 37° C. shaking waterbath and after 5 days in culture at 37° C. and 5% CO2, a depletion of CD45+ lineage cells was performed using a Biotin anti-mouse CD45 Antibody (Biolegend, 103104) and Dynabeads™ Biotin Binder (ThermoFisher 11047), according to the manufacturer's protocol. After 10 days in culture, SFs were seeded overnight (O/N) at a concentration of 2×10^4 cells/well in a 96 well plate in 1×DMEM, supplemented with 100 U/ml Penicillin Streptomycin (P/S) and 10% Fetal Bovine Serum (FBS). The next day the cells were synchronized by starvation that included their O/N plating in low serum medium (0.5% FBS). Following the O/N starvation, the hTNFg and the WT SFs were treated with different concentrations of the experimental compounds. The SFs were at the same time activated with 10 ng/ml hTNF (Peprotech, 300-01A). 48 h following the treatment the cell culture supernatants were collected and analyzed by ELISA (R&S Systems, Duoset, DY478 and DY760) according to the manufacturer's protocol, for the detection of CCL5/Rantes and CCL20/Mip3, two known inflammatory chemokines. The IC50 values were determined as the concentration of the compounds required to reduce the levels of secreted CCL5 and CCL20 by 50%.
In order to determine the efficiency of the compounds of the invention, the same protocol was repeated with some minor modifications. Mainly, the concentration of hTNF was 10-fold reduced, i.e., adjusted to 1 ng/ml, and the SFs were seeded overnight at a concentration of 10^4 cells/well.
(§3) Table 7 summarizes the reduction of CCL5 and CCL20 levels achieved with the test compounds of the invention. Data are presented as percentages of the chemokine levels detected in treated cells compared to 100% levels of the chemokines detected in the untreated cells.
(§4) Table 8 summarizes the values of IC50 and toxicity for the test compounds of the invention. Dose response curves regarding the WT SFs were produced with 10 ng/ml hTNF stimulation for all compounds, with the exception of the compounds E and F, where WT cells were induced using hTNF at 1 ng/ml: […]

hTNFtg SFs = assay: CCL5 and CCL20 ELISA on hTNFtg synovial fibroblasts; settings: Mus musculus, Fibroblast; for activity at 10 µM: compound 10 μM; for activity at 10 µM / activity at 50 µM / activity at 25 µM: 48 h; for activity at 50 µM: compound 50 μM; for activity at 25 µM: compound 25 μM
Method: as §1
hTNFtg mice overexpress human TNF, resulting in the spontaneous development of arthritis.
as §2, §3, §4

SFs and PMCs = assay: Compound cytotoxicity, Crystal Violet assay
Method: The toxicity of the test compounds was assessed at several concentrations using the Crystal Violet assay on both SFs and PMCs. Adherent viable cells were Methanol fixed and stained with Crystal Violet. Optical density was quantified at […], as described in Feoktistova et al., 2016.

[1] = 10 ng/mL hTNF, compound 10 μM, read-out: CCL5 WT, percentage of level in untreated cells
[2] = 10 ng/mL hTNF, compound 10 μM, read-out: CCL20 WT, percentage of level in untreated cells
[3] = read-out: CCL5 hTNFtg, percentage of level in untreated cells
[4] = read-out: CCL20 hTNFtg, percentage of level in untreated cells
[5] = read-out: IC50 (μM) CCL5 hTNFtg
[6] = read-out: IC50 (μM) CCL20 hTNFtg

| Structure (SMILES) | activity at 10 µM (hTNF-activated wt SFs; [1]) [%] | activity at 10 µM (hTNF-activated wt SFs; [2]) [%] | IC50 (hTNF-activated wt SFs; read-out: IC50 (μM) CCL5 WT) [µM] | IC50 (hTNF-activated wt SFs; read-out: IC50 (μM) CCL20 WT) [µM] | activity at 10 µM (hTNFtg SFs; [3]) [%] | activity at 10 µM (hTNFtg SFs; [4]) [%] | IC50 (hTNFtg SFs; [5]) [µM] | IC50 (hTNFtg SFs; [6]) [µM] | Cell Toxicity (SFs and PMCs) [µM] | activity at 25 µM (hTNFtg SFs; [3]) [%] | activity at 25 µM (hTNFtg SFs; [4]) [%] | other results |
| --- | --- | --- | --- | --- | --- | --- | --- | --- | --- | --- | --- | --- |
| COc1cc(N)c(Cl)cc1C(=O)NCC1(N2CCSCC2)CCCCCC1 [Compound 44, 4-amino-5-chloro-2-methoxy-N-((1-thiomorpholinocycloheptyl)methyl)benzamide] | 30 | 75 | 3.7 | ~65 | 69 | 45 | 12.6 | ~15 | >100 |  |  | activity at 50 µM (hTNF-activated wt SFs; 10 ng/mL hTNF, read-out: CCL5 WT, percentage of level in untreated cells): 2%; activity at 50 µM (hTNF-activated wt SFs; 10 ng/mL hTNF, read-out: CCL20 WT, percentage of level in untreated cells): 46%; activity at 50 µM (hTNFtg SFs; [3]): 26%; activity at 50 µM (hTNFtg SFs; [4]): 27% |
| COc1cc(N)c(Cl)cc1C(=O)NCC1(c2ccc(F)cc2)CCCCCC1 [Compound 57, 4-amino-5-chloro-N-((1-(4-fluorophenyl)cycloheptyl)methyl)-2-methoxybenzamide] | 49 | 13 | 18 | 3.5 | 40 | 27 | 4 | 2.4 | >25 | 40 | 25 | activity at 25 µM (hTNF-activated wt SFs; 10 ng/mL hTNF, compound 25 μM, read-out: CCL5 WT, percentage of level in untreated cells): 14%; activity at 25 µM (hTNF-activated wt SFs; 10 ng/mL hTNF, compound 25 μM, read-out: CCL20 WT, percentage of level in untreated cells): 6% |
| COc1cc(N)c(Cl)cc1C(=O)NCC1(c2ccc(F)cc2Cl)CCCCCC1 [Compound 58, 4-amino-5-chloro-N-((1-(2-chloro-4-fluorophenyl)cycloheptyl)methyl)-2-methoxybenzamide] |  | 48.5 | 2.96 | 2.44 | 64 | 32.5 | 0.95 | 0.74 | >50 | 53.5 | 22.5 | CCL5 WT, percentage of level in untreated cells (hTNF-activated wt SFs; 1 ng/mL hTNF, compound 10 μM): 8%; CCL5 WT, percentage of level in untreated cells (hTNF-activated wt SFs; 1 ng/mL hTNF, compound 25 μM): 9%; CCL20 WT, percentage of level in untreated cells (hTNF-activated wt SFs; 1 ng/mL hTNF, compound 25 μM): 14%; CCL5 WT, percentage of level in untreated cells (hTNF-activated wt SFs; 10 ng/mL hTNF, compound 10 μM): 0%; CCL5 WT, percentage of level in untreated cells (hTNF-activated wt SFs; 10 ng/mL hTNF, compound 25 μM): 0%; CCL20 WT, percentage of level in untreated cells (hTNF-activated wt SFs; 10 ng/mL hTNF, compound 25 μM): 0%; activity at 10 µM (hTNF-activated wt SFs; 1 ng/mL hTNF, compound 10 μM, read-out: CCL20 WT, percentage of level in untreated cells): 15% |
